We go through five compounds from patent US20250382344A1, “Soluble GLP1/GIP/NPY2 Receptor Triple Agonists” (Boehringer Ingelheim International GmH, priority 2024, published 2025).

As usually defined, the solubility is how much of the substance goes into solution per volume.

Like-named read-outs stand apart in the source and are kept apart here.

One data set has as its target T1, hGIPR (Homo sapiens, UniProt P48546).
T1 construct: expressed in transfected cells; host or cells: CHO CRE-luciferase reporter cells
T1 sequence (P48546 22-466): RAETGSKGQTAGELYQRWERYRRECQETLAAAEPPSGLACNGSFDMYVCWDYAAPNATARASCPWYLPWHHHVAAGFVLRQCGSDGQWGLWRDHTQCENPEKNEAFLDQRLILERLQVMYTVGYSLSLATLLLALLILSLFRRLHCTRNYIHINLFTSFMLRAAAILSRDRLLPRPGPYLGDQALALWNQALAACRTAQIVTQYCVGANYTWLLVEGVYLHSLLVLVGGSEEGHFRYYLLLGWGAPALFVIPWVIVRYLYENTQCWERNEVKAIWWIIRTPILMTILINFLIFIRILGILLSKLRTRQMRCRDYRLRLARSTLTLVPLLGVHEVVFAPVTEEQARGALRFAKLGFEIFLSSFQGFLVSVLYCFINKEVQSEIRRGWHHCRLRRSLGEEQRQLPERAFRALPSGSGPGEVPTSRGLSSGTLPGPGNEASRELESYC
The data set is described as follows: hGIPR CreLuc assay in 0.5% and 100% plasma (CHO CRE-luciferase reporter cells). Format: cell-based. On the technique in general: In a reporter assay the amount or activity of a reporter protein is the signal.

Data set [1] in a line: Solubility in 0.1 M phosphate buffer at pH 7. The conditions noted are these: 0.1 M phosphate buffer at pH 7, 10 mg/mL final peptide concentration, shaking 2 hours at room temperature, peptides as TFA-salts, measured sample pH 6.5-7.0. Format: physicochemical.
Setting [2] is: 0.5% human plasma, read-out: hGIPR 0.5% hP.
Setting [3] is: 100% human plasma, read-out: hGIPR 100% hP.

As for `CC[C@H](C)[C@H](NC(=O)[C@H](CC(C)C)NC(=O)[C@H](Cc1c[nH]cn1)NC(=O)[C@H](CCCNC(=N)N)NC(=O)[C@@H](NC(=O)[C@H](Cc1ccccc1)NC(=O)[C@H](C)NC(=O)C(C)(C)NC(=O)[C@H](CCC(N)=O)NC(=O)[C@H](C)NC(=O)[C@H](CCC(N)=O)NC(=O)[C@H](CCCCN)NC(=O)[C@H](CCC(=O)O)NC(=O)[C@H](CC(C)C)NC(=O)C(C)(C)NC(=O)[C@@H](NC(=O)[C@H](CO)NC(=O)[C@H](Cc1ccc(O)cc1)NC(=O)[C@H](CC(=O)O)NC(=O)[C@H](CO)NC(=O)[C@@H](NC(=O)[C@H](Cc1ccccc1)NC(=O)[C@@H](NC(=O)CNC(=O)[C@H](CCC(=O)O)NC(=O)C(C)(C)NC(=O)[C@@H](N)Cc1ccc(O)cc1)[C@@H](C)O)[C@@H](C)O)[C@@H](C)CC)C(C)C)C(=O)N[C@@H](CC(N)=O)C(=O)N[C@@H](CCCCNC(=O)CC[C@H](NC(=O)CC[C@H](NC(=O)COCCOCCNC(=O)CC[C@H](NC(=O)CC[C@H](NC(=O)CC[C@H](NC(=O)CC[C@H](NC(=O)CCCCCCCCCCCCCCCCCCC(=O)O)C(=O)O)C(=O)O)C(=O)O)C(=O)O)C(=O)O)C(=O)O)C(=O)NC(C)(C)C(=O)N[C@H](C(=O)N[C@@H](CCCNC(=N)N)C(=O)N[C@@H](CCC(N)=O)C(=O)N[C@@H](CCCNC(=N)N)C(=O)N[C@@H](Cc1ccc(O)cc1)C(N)=O)[C@@H](C)O` [Compound 136, Y-Aib-E-G-T-F-T-S-D-Y-S-I-Aib-L-E-K-Q-A-Q-Aib-A-F-V-R-H-L-I-N-K(1,3)-Aib-T-R-Q-R-Y-NH2.C20DA-gGlu-gGlu-gGlu-gGlu-OEG-gGlu-gGlu(1,2)], the EC50 on hGIPR (setting [2]) came to 0.5 nM. For the same compound, in data set [1], the solubility at 2 h turned out to be 9.6 mg/mL.
As to `CC[C@H](C)[C@H](NC(=O)[C@H](CC(C)C)NC(=O)[C@H](Cc1c[nH]cn1)NC(=O)[C@H](CCCNC(=N)N)NC(=O)[C@@H](NC(=O)[C@H](Cc1ccccc1)NC(=O)[C@H](C)NC(=O)C(C)(C)NC(=O)[C@H](CCC(N)=O)NC(=O)[C@H](C)NC(=O)[C@H](CCC(N)=O)NC(=O)[C@H](CCCCN)NC(=O)[C@H](CCC(=O)O)NC(=O)[C@H](CC(C)C)NC(=O)C(C)(C)NC(=O)[C@@H](NC(=O)[C@H](CO)NC(=O)[C@H](Cc1ccc(O)cc1)NC(=O)[C@H](CC(=O)O)NC(=O)[C@H](CO)NC(=O)[C@@H](NC(=O)[C@H](Cc1ccccc1)NC(=O)[C@@H](NC(=O)CNC(=O)[C@H](CCC(=O)O)NC(=O)C(C)(C)NC(=O)[C@@H](N)Cc1ccc(O)cc1)[C@@H](C)O)[C@@H](C)O)[C@@H](C)CC)C(C)C)C(=O)N[C@@H](CC(N)=O)C(=O)N[C@@H](CCCCNC(=O)[C@@H](N)CCCCNC(=O)CC[C@H](NC(=O)CC[C@H](NC(=O)CC[C@H](NC(=O)CC[C@H](NC(=O)CC[C@H](NC(=O)CC[C@H](NC(=O)[C@H]1CC[C@H](CNC(=O)CCCCCCCCCCCCCCCCC(=O)O)CC1)C(=O)O)C(=O)O)C(=O)O)C(=O)O)C(=O)O)C(=O)O)C(=O)NC(C)(C)C(=O)N[C@H](C(=O)N[C@@H](CCCNC(=N)N)C(=O)N[C@@H](CCC(N)=O)C(=O)N[C@@H](CCCNC(=N)N)C(=O)N[C@@H](Cc1ccc(O)cc1)C(N)=O)[C@@H](C)O` [Compound 137, Y-Aib-E-G-T-F-T-S-D-Y-S-I-Aib-L-E-K-Q-A-Q-Aib-A-F-V-R-H-L-I-N-K(1,3)-Aib-T-R-Q-R-Y-NH2.C18DA-TRX-gGlu-gGlu-gGlu-gGlu-gGlu-gGlu-eLys(1,2)], the EC50 on hGIPR (setting [2]) is 0.5 nM; on hGIPR (setting [3]) it was 11.5 nM. Also, in data set [1], the solubility at 2 h came to 4.3 mg/mL.
In the case of `CC[C@H](C)[C@H](NC(=O)[C@H](CC(C)C)NC(=O)[C@H](Cc1c[nH]cn1)NC(=O)[C@H](CCCNC(=N)N)NC(=O)[C@@H](NC(=O)[C@H](Cc1ccccc1)NC(=O)[C@H](C)NC(=O)C(C)(C)NC(=O)[C@H](CCC(N)=O)NC(=O)[C@H](C)NC(=O)[C@H](CCC(N)=O)NC(=O)[C@H](CCC(=O)O)NC(=O)[C@H](CC(=O)O)NC(=O)[C@H](CC(C)C)NC(=O)C(C)(C)NC(=O)[C@@H](NC(=O)[C@H](CO)NC(=O)[C@H](Cc1ccc(O)cc1)NC(=O)[C@H](CC(=O)O)NC(=O)[C@H](CO)NC(=O)[C@@H](NC(=O)[C@H](Cc1ccccc1)NC(=O)[C@@H](NC(=O)CNC(=O)[C@H](CCC(=O)O)NC(=O)C(C)(C)NC(=O)[C@@H](N)Cc1ccc(O)cc1)[C@@H](C)O)[C@@H](C)O)[C@@H](C)CC)C(C)C)C(=O)N[C@@H](CC(N)=O)C(=O)N[C@@H](CCCCNC(=O)[C@@H](N)CCCCNC(=O)CC[C@H](NC(=O)CC[C@H](NC(=O)CC[C@H](NC(=O)CC[C@H](NC(=O)CC[C@H](NC(=O)CCCCCCCCCCCCCCCCCCC(=O)O)C(=O)O)C(=O)O)C(=O)O)C(=O)O)C(=O)O)C(=O)NC(C)(C)C(=O)N[C@H](C(=O)N[C@@H](CCCNC(=N)N)C(=O)N[C@@H](CCC(N)=O)C(=O)N[C@@H](CCCNC(=N)N)C(=O)N[C@@H](Cc1ccc(O)cc1)C(N)=O)[C@@H](C)O` [Compound 138, Y-Aib-E-G-T-F-T-S-D-Y-S-I-Aib-L-D-E-Q-A-Q-Aib-A-F-V-R-H-L-I-N-K(1,3)-Aib-T-R-Q-R-Y-NH2.C20DA-gGlu-gGlu-gGlu-gGlu-gGlu-eLys(1,2)], the EC50 at hGIPR (setting [2]) was 0.5 nM; at hGIPR (setting [3]), 11.5 nM. The solubility at 2 h in data set [1] worked out at 9.3 mg/mL.
Take `CC[C@H](C)[C@H](NC(=O)[C@H](CC(C)C)NC(=O)[C@H](Cc1c[nH]cn1)NC(=O)[C@H](CCCNC(=N)N)NC(=O)[C@@H](NC(=O)[C@H](Cc1ccccc1)NC(=O)[C@H](CO)NC(=O)C(C)(C)NC(=O)[C@H](CCC(N)=O)NC(=O)[C@H](C)NC(=O)[C@H](CCC(N)=O)NC(=O)[C@H](CCCCN)NC(=O)[C@H](CCC(=O)O)NC(=O)[C@H](CC(C)C)NC(=O)C(C)(C)NC(=O)[C@@H](NC(=O)[C@H](CO)NC(=O)[C@H](Cc1ccc(O)cc1)NC(=O)[C@H](CC(=O)O)NC(=O)[C@H](CO)NC(=O)[C@@H](NC(=O)[C@H](Cc1ccccc1)NC(=O)[C@@H](NC(=O)CNC(=O)[C@H](CCC(=O)O)NC(=O)C(C)(C)NC(=O)[C@@H](N)Cc1ccc(O)cc1)[C@@H](C)O)[C@@H](C)O)[C@@H](C)CC)C(C)C)C(=O)N[C@@H](CC(N)=O)C(=O)N[C@@H](CCCCNC(=O)[C@@H](N)CCCCNC(=O)CC[C@H](NC(=O)CC[C@H](NC(=O)CC[C@H](NC(=O)CC[C@H](NC(=O)CC[C@H](NC(=O)CC[C@H](NC(=O)CCCCCCCCCCCCCCCCC(=O)O)C(=O)O)C(=O)O)C(=O)O)C(=O)O)C(=O)O)C(=O)O)C(=O)NC(C)(C)C(=O)N[C@H](C(=O)N[C@@H](CCCNC(=N)N)C(=O)N[C@@H](CCC(N)=O)C(=O)N[C@@H](CCCNC(=N)N)C(=O)N[C@@H](Cc1ccc(O)cc1)C(N)=O)[C@@H](C)O` [Compound 144, Y-Aib-E-G-T-F-T-S-D-Y-S-I-Aib-L-E-K-Q-A-Q-Aib-S-F-V-R-H-L-I-N-K(1,3)-Aib-T-R-Q-R-Y-NH2.C18DA-gGlu-gGlu-gGlu-gGlu-gGlu-gGlu-eLys(1,2)]: on hGIPR (setting [2]), the EC50 was found to be 0.4 nM. Moreover, in data set [1], the solubility at 2 h was determined as 4.3 mg/mL.
`CC[C@H](C)[C@H](NC(=O)[C@H](CC(C)C)NC(=O)[C@H](Cc1c[nH]cn1)NC(=O)[C@H](CCCNC(=N)N)NC(=O)[C@@H](NC(=O)[C@H](Cc1ccccc1)NC(=O)[C@H](CCC(=O)O)NC(=O)C(C)(C)NC(=O)[C@H](CCC(N)=O)NC(=O)[C@H](C)NC(=O)[C@H](CCC(N)=O)NC(=O)[C@H](CCCCN)NC(=O)[C@H](CCC(=O)O)NC(=O)[C@H](CC(C)C)NC(=O)C(C)(C)NC(=O)[C@@H](NC(=O)[C@H](CO)NC(=O)[C@H](Cc1ccc(O)cc1)NC(=O)[C@H](CC(=O)O)NC(=O)[C@H](CO)NC(=O)[C@@H](NC(=O)[C@H](Cc1ccccc1)NC(=O)[C@@H](NC(=O)CNC(=O)[C@H](CCC(=O)O)NC(=O)C(C)(C)NC(=O)[C@@H](N)Cc1ccc(O)cc1)[C@@H](C)O)[C@@H](C)O)[C@@H](C)CC)C(C)C)C(=O)N[C@@H](CC(N)=O)C(=O)N[C@@H](CCCCNC(=O)[C@@H](N)CCCCNC(=O)CC[C@H](NC(=O)CC[C@H](NC(=O)CC[C@H](NC(=O)CC[C@H](NC(=O)CC[C@H](NC(=O)CC[C@H](NC(=O)CCCCCCCCCCCCCCCCCCC(=O)O)C(=O)O)C(=O)O)C(=O)O)C(=O)O)C(=O)O)C(=O)O)C(=O)NC(C)(C)C(=O)N[C@H](C(=O)N[C@@H](CCCNC(=N)N)C(=O)N[C@@H](CCC(N)=O)C(=O)N[C@@H](CCCNC(=N)N)C(=O)N[C@@H](Cc1ccc(O)cc1)C(N)=O)[C@@H](C)O` [Compound 149, Y-Aib-E-G-T-F-T-S-D-Y-S-I-Aib-L-E-K-Q-A-Q-Aib-E-F-V-R-H-L-I-N-K(1,3)-Aib-T-R-Q-R-Y-NH2.C20DA-gGlu-gGlu-gGlu-gGlu-gGlu-gGlu-eLys(1,2)]: on hGIPR (setting [2]), the EC50 worked out at 0.6 nM. Further, the solubility in data set [1] (read-out: Solubility) worked out at 4.9 mg/mL.
